Data taken from patent US11357778B2, “Antagonist of the fibroblast growth factor receptor 3 (FGFR3) for use in the treatment or the prevention of skeletal disorders linked with abnormal activation of FGFR3” (INSTITUT NATIONAL DE LA SANTE ET DE LE RECHERCHE MEDICALE …, priority 2011, dated 2022).

Experiments:
WT femurs = assay: Ex vivo culture of E16.5 embryonic femur explants, bone length, wild type; format: cell-based, mouse; details: A31 2 mM, 5 days of culture
Experimental: (§1) Six sets of ex vivo experiments were performed. Femur embryos at day E16.5 from WT (n=6) and Fgfr3^Y367C/+ (n=6) mice were used and incubated for 5 days in DMEM medium with antibiotics and 0.2% BSA (Sigma) supplemented with A31 or PD173074 (as control) at a concentration of 2 mM. Right femur was cultured in supplemented medium and compared with the left one cultured in control medium. Rib cage from E16.5 WT and Fgfr3^Y367C/+ mice embryos were isolated and stripped of all soft tissues. Primary chondrocytes were obtained from rib cages. The ribs were incubated in a pronase solution (Roche; 2 mg/ml) followed by a digestion in Collagenase A (Roche; 3 mg/ml) at 37° C. Isolated chondrocytes were plated out at a density of 2.105 cells in 6-well plates containing DMEM supplemented with 10% FCS and antibiotics, and were allowed to reach subconfluency. Cultures were supplemented with A31 or PD173074 (as control) at a concentration of 2 mM. […] To establish the effect of the inhibitors, the right femur was cultured in supplemented medium and compared with the left one cultured in control medium The bone length was measured at the beginning (before treatment) and at the end of time course. […] The genotype of WT, Fgfr3^Y367C/+ and Fgfr3^−/− mice were determined by PCR of tail DNA as previously described (Pannier et al., Biochim Biophys Acta, 1792: 140-147, 2009). […]

FGFR3 [1] = target: FGFR3 (Homo sapiens, UniProt P22607); details: read-out: IC50 for inhibition of autophosphorylation of FGFR3; cited from earlier work
FGFR3, sequence (P22607 23-806): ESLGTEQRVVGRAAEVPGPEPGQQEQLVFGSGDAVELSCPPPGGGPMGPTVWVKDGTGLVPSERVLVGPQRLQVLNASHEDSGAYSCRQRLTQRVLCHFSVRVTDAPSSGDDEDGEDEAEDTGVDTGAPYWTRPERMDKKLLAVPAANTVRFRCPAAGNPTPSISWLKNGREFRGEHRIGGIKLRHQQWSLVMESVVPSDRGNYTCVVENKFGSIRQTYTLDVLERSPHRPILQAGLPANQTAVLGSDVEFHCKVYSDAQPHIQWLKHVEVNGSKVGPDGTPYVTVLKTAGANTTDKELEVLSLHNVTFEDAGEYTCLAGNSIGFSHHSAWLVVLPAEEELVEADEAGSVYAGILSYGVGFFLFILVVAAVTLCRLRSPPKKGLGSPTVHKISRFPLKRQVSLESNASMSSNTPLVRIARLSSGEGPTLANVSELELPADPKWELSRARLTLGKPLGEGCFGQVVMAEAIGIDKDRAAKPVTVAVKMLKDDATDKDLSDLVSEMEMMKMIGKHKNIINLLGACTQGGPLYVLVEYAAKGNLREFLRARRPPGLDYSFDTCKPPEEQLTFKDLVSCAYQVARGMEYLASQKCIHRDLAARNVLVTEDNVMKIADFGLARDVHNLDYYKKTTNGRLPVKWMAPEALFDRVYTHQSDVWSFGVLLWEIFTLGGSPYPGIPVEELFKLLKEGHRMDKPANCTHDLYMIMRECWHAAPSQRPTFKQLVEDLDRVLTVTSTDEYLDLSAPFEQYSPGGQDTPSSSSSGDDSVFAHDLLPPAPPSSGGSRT

Fgfr3 [2] = assay: Fgfr3 protein expression (immunohistochemistry of femurs, Western blot of costal primary chondrocytes); format: cell-based, mouse; details: A31; data not shown
Experimental: as §1, with “C.” for “C. Isolated chondrocytes were plated out at a density of 2.105 cells in 6-well plates containing DMEM supplemented with 10% FCS and antibiotics, and were allowed to reach subconfluency. Cultures were supplemented with A31 or PD173074 (as control) at a concentration of 2 mM.”
Immunoprecipitation were performed by incubating […] rabbit anti-FGFR3 (Sigma)/[…] protein with protein A-agarose (Roche). […] Bound proteins were detected by chemiluminescence (ECL, Amersham). The blots were rehybrididized with an antipan-actin antibody for quantification (Millipore). […]

[3] = system: Fgfr3^Y367C/+ mouse growth plates; assay: Proliferation markers and cell cycle regulators in growth plates (immunohistochemistry, PCNA quantification); format: cell-based
Experimental: In situ hybridization using [S35]-UTP labeled antisense ribopropes for collagen X was carried out as previously described (Delezoide et al., Hum Mol Genet, 6, 1899-1906, 1997). Sections were counterstained with Hematoxylin. For immunohistochemistry, sections were stained with antibodies specific to FGFR3 (1:250 dilution; Sigma), anti PCNA (1:1000 dilution; Abcam), anti-KI67 (1:300; Abcam), anti-cyclin D1 (1:80 dilution; Santa Cruz) and anti-p57 (1:100 dilution; Santa Cruz) using the Dako Envision kit. Images were captured with an Olympus PD70-IX2-UCB microscope.
Three observers counted PCNA-positive and negative chondrocytes in proliferative […], prehypertrophic (PH) and hypertrophic (H) zones of the growth plate. A Student's t-test was used to compare treated (A31) and untreated femurs. Imagine software cellSens (Olympus) was used for counting cells. A p-value<0.05 is considered significant.
The inventors noted a higher expression of PCNA than KI67 in the mutant growth plate. Furthermore, the inventors investigated whether the presence of mutated Fgfr3 caused an impairment of expression of cell cycle regulators. In fact, activated Fgfr3 induced a significant overexpression of cyclin D1 in the proliferative and PH chondrocytes of Fgfr3^Y367C/+ mice. […] The inventors further analyzed the level of CDK inhibitors (CDKIs) negatively regulating the cell cycle, particularly p57, a member of the Cip/Kip family. Activated Fgfr3 induced a higher expression of p57 predominantly in late proliferative and PH chondrocytes. […] The inventors conclude that activated FGFR3 leads to over-expression of markers of proliferation (PCNA, KI67) and cell cycle regulators (cyclin D1 and p57) particularly in the prehypertrophic zone.

[4] = system: FGFR3^Y373C transfected NIH3T3 cells; assay: [3H]-thymidine incorporation in NIH3T3 cells expressing FGFR3^Y373C; format: cell-based, mouse; details: A31 2 mM
Experimental: NIH-3T3 clones stably expressing FGFR3^+/+ (WT) and FGFR3^Y373C, FGFR3K650M (human constructs) were used. The stable clones were selected with G418. NIH-3T3 clones were incubated for 8 h in 10% newborn calf serum DMEM supplemented or not with A31 (2 mM). [3H] thymidine was added at a concentration of […] and incubated for 16 hours. The cells were harvested on glass fiber filter paper and assayed for radioactivity by liquid scintillation counting. The inventors used Top Count Microplates scintillation counter (Perkin Elmer).
To determine whether A31 modulates the mitogenic activity of activated FGFR3, the inventors measured [3H]-thymidine incorporation in FGFR3^Y373C and FGFR3^K650M transfected NIH3T3 cells. The mitogenic activity was increased in cells expressing FGFR3 mutations compared to WT (FGFR3^Y373C, 9927±2921 cpm; FGFR3^K650M, 15048±5251 cpm; WT, 7499±1667 cpm; p<10^−5 versus WT).

[5] = A31-treated Fgfr3^Y367C/+ growth plates

For `COc1cc(OC)cc(-c2cc3cnc(NCc4cn(CC5CCCN(C)C5)nn4)nc3nc2NC(=O)NC(C)(C)C)c1` (stereo not drawn) [Compound A31], the “longitudinal bone growth (gain in femur length)” value (WT femurs) is given as 1863±255 μm, the IC50 (FGFR3 [1]) is given as roughly 190 nM and the “Fgfr3 expression in mutant femurs (immunohistochemical staining)” value (Fgfr3 [2]) is given as “large decrease of Fgfr3 expression”. For the same compound, the “PCNA positive cells, hypertrophic (H) zone” value [3, 5] was 18%, the “PCNA positive cells, prehypertrophic (PH) zone” value [3, 5] was 20% and the “p57 protein expression in growth plate” value ([3]; A31, PH zone, data not shown) was “reduced expression of p57 protein”. The “KI67 expression in growth plates” value ([3]; A31, data not shown) was “decreased this expression”, the “cyclin D1 expression in mutant femurs (immunohistochemistry)” value ([3]; A31, data not shown) was “returned cyclin D1 expression to control levels” and the “[3H]-thymidine incorporation (DNA synthesis)” value [4] was 3144±1201 cpm.
